Measurements as given in ChEMBL document CHEMBL1139115, “Thyroid receptor ligands. Part 7: Indirect antagonists of the thyroid hormone receptor with improved affinity” (Bioorg Med Chem Lett, 2007).

Assays:
Homo sapiens = organism: Homo sapiens; assay: Selectivity for human TR-alpha-1 to human TRbeta1
[1] = biological target: T1, Thyroid hormone receptor alpha (Homo sapiens, UniProt P10827); assay: Binding affinity at human TRalpha1
T1 sequence (P10827 whole entry): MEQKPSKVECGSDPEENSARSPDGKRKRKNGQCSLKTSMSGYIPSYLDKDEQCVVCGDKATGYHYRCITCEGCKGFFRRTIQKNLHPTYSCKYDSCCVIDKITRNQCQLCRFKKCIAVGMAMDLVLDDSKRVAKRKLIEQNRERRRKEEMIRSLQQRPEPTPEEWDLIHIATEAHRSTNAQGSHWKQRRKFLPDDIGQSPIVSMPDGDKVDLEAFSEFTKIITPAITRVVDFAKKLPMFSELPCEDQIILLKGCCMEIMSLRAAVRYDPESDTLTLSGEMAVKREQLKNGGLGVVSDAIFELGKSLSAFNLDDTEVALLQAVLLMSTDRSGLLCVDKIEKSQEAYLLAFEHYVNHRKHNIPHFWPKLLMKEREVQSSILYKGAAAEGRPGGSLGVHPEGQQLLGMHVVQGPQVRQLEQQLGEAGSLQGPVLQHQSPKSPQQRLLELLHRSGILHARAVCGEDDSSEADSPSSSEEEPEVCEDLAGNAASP

[2] = biological target: T2, Thyroid hormone receptor beta (Homo sapiens, UniProt P10828); assay: Binding affinity at human TRbeta1
T2 sequence (P10828 whole entry): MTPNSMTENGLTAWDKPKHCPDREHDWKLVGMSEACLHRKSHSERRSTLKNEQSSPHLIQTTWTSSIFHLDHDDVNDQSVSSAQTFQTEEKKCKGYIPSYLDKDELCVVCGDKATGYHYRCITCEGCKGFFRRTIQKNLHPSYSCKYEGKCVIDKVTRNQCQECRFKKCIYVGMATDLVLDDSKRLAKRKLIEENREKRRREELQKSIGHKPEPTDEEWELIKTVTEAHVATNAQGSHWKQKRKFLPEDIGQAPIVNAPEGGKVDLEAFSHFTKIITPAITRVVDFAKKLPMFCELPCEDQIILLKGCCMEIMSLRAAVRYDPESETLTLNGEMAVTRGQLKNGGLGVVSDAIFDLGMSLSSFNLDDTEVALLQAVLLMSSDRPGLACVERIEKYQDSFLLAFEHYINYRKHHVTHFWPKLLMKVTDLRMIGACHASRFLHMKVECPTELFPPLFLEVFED

[3] = biological target: T1, Thyroid hormone receptor alpha
Description: Agonist activity at human TR-alpha-1 expressed in CHO cells assessed as TRAF-alpha-1-driven gene transactivation by alkaline phosphatase reporter gene assay

[4] = biological target: T2, Thyroid hormone receptor beta; assay: Agonist activity at human TR-beta-1 expressed in CHO cells assessed as TRAF-beta-1-driven gene transactivation by alkaline phosphatase reporter gene assay; format: functional, cell-based
[5] = biological target: T2, Thyroid hormone receptor beta
Description: Antagonist activity at human TR-beta-1 expressed in CHO cells assessed as TRAF-beta-1-driven gene transactivation by alkaline phosphatase reporter gene assay

[6] = biological target: T3, Thyroid hormone receptor alpha (Homo sapiens) (UniProt P10827); assay: (§1) Antagonist activity at human TR-alpha-1 expressed in CHO cells assessed as TRAF-alpha-1-driven gene transactivation by alkaline phosphatase reporter gene assay; format: functional, cell-based; parameters: scale not given: the % may be the effect or the level left
T3 sequence (whole entry): T1 sequence (P10827 whole entry)

[7] = biological target: T1, Thyroid hormone receptor alpha; assay: as §1; format: functional, cell-based
[8] = biological target: T1, Thyroid hormone receptor alpha; assay: Displacement of L-T3 from human TR-alpha-1 expressed in CHOK1 cells assessed as TRAF-alpha-1-driven gene transactivation by alkaline phosphatase reporter gene assay; format: cell-based, CHO-K1
Progesterone receptor = biological target: T4, Progesterone receptor (Homo sapiens, UniProt P06401); assay: Binding affinity at PR
T4 sequence (P06401 whole entry): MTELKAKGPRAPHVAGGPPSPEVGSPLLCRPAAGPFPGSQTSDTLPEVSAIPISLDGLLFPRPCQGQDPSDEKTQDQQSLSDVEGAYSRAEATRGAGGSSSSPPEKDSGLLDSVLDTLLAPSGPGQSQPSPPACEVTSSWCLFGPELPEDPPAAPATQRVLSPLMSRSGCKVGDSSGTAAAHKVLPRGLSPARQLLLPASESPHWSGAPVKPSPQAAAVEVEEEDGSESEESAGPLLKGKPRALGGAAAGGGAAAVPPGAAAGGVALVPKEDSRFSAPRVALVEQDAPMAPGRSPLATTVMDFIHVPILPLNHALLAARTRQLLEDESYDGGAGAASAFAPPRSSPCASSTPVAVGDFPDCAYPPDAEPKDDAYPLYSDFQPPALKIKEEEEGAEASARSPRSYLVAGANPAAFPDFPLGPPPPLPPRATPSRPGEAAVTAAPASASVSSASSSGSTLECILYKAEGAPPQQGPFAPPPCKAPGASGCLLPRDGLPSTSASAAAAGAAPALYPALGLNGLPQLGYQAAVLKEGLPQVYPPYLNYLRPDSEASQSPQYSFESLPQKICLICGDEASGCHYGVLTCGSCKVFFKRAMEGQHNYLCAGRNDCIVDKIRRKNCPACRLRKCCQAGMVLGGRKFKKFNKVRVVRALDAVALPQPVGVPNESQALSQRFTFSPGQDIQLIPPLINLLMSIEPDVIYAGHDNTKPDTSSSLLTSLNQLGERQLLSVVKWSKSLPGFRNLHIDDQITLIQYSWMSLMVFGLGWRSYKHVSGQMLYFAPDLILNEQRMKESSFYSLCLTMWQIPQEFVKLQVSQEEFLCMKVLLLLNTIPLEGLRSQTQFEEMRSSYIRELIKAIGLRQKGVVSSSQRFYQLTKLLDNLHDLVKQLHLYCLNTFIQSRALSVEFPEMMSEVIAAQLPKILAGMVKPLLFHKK

[9] = biological target: T5, Mineralocorticoid receptor (Homo sapiens, UniProt P08235); assay: Binding affinity at MR
T5 sequence (P08235 whole entry): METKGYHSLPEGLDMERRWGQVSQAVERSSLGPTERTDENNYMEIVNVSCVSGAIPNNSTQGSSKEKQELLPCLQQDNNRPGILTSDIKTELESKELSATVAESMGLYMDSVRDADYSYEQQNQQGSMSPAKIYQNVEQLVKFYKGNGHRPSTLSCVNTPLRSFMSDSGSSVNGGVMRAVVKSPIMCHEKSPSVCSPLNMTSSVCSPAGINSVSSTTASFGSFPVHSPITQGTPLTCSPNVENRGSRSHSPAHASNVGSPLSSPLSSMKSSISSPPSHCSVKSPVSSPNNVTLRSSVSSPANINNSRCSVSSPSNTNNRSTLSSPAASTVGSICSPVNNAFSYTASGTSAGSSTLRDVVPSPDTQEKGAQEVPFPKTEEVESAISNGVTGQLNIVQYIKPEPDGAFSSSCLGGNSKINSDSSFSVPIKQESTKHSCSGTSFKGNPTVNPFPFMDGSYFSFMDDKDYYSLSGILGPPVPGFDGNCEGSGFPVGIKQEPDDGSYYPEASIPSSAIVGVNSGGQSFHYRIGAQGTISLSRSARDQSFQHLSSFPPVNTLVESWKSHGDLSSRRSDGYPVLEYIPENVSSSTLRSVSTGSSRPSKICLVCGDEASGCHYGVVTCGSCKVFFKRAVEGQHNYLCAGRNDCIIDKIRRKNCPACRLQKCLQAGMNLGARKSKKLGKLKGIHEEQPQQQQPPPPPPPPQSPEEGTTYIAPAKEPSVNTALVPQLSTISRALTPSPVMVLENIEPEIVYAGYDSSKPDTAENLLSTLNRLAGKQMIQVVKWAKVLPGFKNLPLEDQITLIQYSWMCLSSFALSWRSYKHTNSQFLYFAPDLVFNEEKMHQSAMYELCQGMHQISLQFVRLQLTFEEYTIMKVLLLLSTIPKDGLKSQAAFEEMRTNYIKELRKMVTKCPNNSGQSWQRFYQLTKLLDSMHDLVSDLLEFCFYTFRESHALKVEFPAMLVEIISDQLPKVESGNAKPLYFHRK

Estrogen receptor = biological target: T6, Estrogen receptor (Homo sapiens, UniProt P03372); assay: Binding affinity at ERalpha
T6 sequence (P03372 whole entry): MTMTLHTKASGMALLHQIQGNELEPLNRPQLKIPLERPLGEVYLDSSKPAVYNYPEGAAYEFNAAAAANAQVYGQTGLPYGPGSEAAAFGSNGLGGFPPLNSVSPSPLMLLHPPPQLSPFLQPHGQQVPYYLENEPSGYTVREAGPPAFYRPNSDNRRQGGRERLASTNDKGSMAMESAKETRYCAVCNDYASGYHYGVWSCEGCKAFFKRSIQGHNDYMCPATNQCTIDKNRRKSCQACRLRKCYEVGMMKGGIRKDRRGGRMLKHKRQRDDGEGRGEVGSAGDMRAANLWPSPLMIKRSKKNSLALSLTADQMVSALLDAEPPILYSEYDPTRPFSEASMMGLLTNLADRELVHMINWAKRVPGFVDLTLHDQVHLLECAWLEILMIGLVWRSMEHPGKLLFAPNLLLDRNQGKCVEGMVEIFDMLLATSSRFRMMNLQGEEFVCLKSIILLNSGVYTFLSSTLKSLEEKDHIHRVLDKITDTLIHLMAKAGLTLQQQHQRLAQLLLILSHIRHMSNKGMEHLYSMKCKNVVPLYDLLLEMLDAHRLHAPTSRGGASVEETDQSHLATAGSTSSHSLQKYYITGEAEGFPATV

Glucocorticoid receptor = biological target: T7, Glucocorticoid receptor (Homo sapiens, UniProt P04150); assay: Binding affinity at GR
T7 sequence (P04150 whole entry): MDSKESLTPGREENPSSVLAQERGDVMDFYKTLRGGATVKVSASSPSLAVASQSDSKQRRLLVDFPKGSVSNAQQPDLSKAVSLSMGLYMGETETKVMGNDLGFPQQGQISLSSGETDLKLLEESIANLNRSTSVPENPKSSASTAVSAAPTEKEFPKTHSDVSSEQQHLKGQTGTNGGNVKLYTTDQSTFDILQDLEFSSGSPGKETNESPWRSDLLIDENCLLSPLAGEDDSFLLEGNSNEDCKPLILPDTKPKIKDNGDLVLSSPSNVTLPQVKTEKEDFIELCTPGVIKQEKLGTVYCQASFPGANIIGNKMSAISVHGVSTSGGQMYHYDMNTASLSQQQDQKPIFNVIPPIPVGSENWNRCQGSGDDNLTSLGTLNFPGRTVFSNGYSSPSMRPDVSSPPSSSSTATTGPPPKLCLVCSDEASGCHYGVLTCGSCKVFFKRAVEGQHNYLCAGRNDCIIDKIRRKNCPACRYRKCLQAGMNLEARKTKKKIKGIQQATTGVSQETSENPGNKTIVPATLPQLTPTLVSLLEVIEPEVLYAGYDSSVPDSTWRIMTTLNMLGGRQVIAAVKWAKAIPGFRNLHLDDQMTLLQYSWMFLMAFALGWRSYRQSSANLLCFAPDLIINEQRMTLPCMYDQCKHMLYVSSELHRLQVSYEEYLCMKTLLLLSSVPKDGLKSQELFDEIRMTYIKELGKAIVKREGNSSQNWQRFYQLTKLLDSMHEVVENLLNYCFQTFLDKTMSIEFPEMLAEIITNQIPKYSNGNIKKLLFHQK

Androgen receptor = biological target: T8, Androgen receptor (Homo sapiens, UniProt P10275); assay: Binding affinity at AR
T8 sequence (P10275 whole entry): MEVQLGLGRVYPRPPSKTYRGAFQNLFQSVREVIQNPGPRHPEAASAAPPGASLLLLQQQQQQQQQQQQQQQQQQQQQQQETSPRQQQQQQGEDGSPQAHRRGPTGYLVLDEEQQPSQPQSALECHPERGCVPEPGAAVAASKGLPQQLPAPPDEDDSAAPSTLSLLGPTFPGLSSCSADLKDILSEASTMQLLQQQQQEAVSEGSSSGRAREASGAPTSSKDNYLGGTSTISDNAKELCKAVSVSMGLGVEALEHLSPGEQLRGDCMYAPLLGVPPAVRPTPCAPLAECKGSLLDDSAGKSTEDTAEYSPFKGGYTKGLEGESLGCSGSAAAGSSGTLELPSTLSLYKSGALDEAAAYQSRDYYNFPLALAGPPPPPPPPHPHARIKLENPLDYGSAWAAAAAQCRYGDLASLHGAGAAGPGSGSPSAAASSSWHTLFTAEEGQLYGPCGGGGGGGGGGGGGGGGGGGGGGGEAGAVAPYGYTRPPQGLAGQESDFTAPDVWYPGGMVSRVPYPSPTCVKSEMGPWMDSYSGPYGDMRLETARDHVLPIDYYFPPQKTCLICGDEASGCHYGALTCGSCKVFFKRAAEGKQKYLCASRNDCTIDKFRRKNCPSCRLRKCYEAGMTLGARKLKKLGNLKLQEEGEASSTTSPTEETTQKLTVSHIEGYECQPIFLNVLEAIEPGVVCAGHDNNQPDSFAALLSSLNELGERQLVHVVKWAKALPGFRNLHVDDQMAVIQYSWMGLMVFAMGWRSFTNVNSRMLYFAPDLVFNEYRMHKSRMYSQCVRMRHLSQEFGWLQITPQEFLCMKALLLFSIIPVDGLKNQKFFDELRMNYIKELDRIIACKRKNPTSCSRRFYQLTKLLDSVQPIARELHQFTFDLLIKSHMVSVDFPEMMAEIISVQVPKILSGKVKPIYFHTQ

SMILES | Ratio IC50 (Homo sapiens) | IC50 [1] [nM] | IC50 [2] [nM] | also measured
Nc1cccc(COc2c(Br)cc(CCC(=O)O)cc2Br)c1 | 4.5 | 2600 | 820 | –
O=C(O)CCc1cc(Br)c(OCc2ccccc2)c(Br)c1 | 1.7 | 680 | 230 | –
O=C(O)CCc1cc(Br)c(OCc2cccc(Br)c2)c(Br)c1 | 0.97 | 99 | 60 | IC50 [5]: 230 nM; Activity [6]: 80%; IC50 [7]: 380 nM; IC50 [8]: 90 nM; IC50 (Progesterone receptor): 2500 nM; IC50 [9]: 8.7 µM; IC50 (Estrogen receptor): 29 µM; IC50 (Glucocorticoid receptor): 14 µM; IC50 (Androgen receptor): 7.7 µM
CCN(CC)c1cccc(COc2c(Br)cc(CCC(=O)O)cc2Br)c1 | 3.2 | 480 | 87 | –

The remaining compounds from weak to strong by IC50 [1], led by results:

Ratio IC50 (Homo sapiens) | IC50 [1] [nM] | IC50 [2] [nM] | SMILES | also measured
3.8 | 1300 | 200 | Cc1ccccc1COc1c(Br)cc(CCC(=O)O)cc1Br | –
0.98 | 600 | 360 | Cc1ccc(COc2c(Br)cc(CCC(=O)O)cc2Br)cc1 | –
1.5 | 500 | 190 | O=C(O)CCc1cc(Br)c(OCc2cccc(Cl)c2)c(Br)c1 | –
1.4 | 370 | 160 | O=C(O)CCc1cc(Br)c(OCc2cccc(C(F)(F)F)c2)c(Br)c1 | –
1.8 | 360 | 120 | Cc1cccc(COc2c(Br)cc(CCC(=O)O)cc2Br)c1 | –
3.4 | 78 | 23 | CCNc1cccc(COc2c(Br)cc(CCC(=O)O)cc2Br)c1 | EC50 [3]: 23 nM; EC50 [4]: 49 nM
